This test has as its system P388 leukemia ip, CD2F1 mice, survival T/C. Description: NCI In Vivo Anticancer Drug Screen. Data for tumor model P388 Leukemia (intraperitoneal) in CD2F1 (CDF1) mice. To be noted: endpoint: median survival time, higher = longer survival. In a few lines: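 Mice carrying the transplanted tumor received test compound or vehicle. Survival was recorded in each group, and the value is the treated-group measurement divided by that of the vehicle-treated control group.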

[1] abbreviates: dose: 60.0 mg/kg/injection, schedule: Q01DX005 (ip), vehicle: Klucel (hydroxypropylcellulose) (HPC).
[2] abbreviates: dose: 120.0 mg/kg/injection, schedule: Q01DX005 (ip), vehicle: Klucel (hydroxypropylcellulose) (HPC).
[3] abbreviates: dose: 240.0 mg/kg/injection, schedule: Q01DX005 (ip), vehicle: Klucel (hydroxypropylcellulose) (HPC).
Setting [4] is: dose: 50.0 mg/kg/injection, schedule: Q01DX005 (ip), vehicle: Klucel (hydroxypropylcellulose) (HPC).
The mark [5] stands for this setting: dose: 100.0 mg/kg/injection, schedule: Q01DX005 (ip), vehicle: Klucel (hydroxypropylcellulose) (HPC).
Where [6] appears, read: dose: 200.0 mg/kg/injection, schedule: Q01DX005 (ip), vehicle: Klucel (hydroxypropylcellulose) (HPC).
Where [7] appears, read: dose: 100.0 mg/kg/injection, schedule: Q01DX001 (ip), vehicle: saline.
Setting [8] is: dose: 200.0 mg/kg/injection, schedule: Q01DX001 (ip), vehicle: saline.
[9] abbreviates: dose: 50.0 mg/kg/injection, schedule: Q01DX005 (ip), vehicle: saline with Tween-80.
[10] abbreviates: dose: 100.0 mg/kg/injection, schedule: Q01DX005 (ip), vehicle: saline with Tween-80.
Where [11] appears, read: dose: 25.0 mg/kg/injection, schedule: Q01DX009 (ip), vehicle: saline with Tween-80.
[12] abbreviates: dose: 50.0 mg/kg/injection, schedule: Q01DX009 (ip), vehicle: saline with Tween-80.
Setting [13] is: dose: 100.0 mg/kg/injection, schedule: Q01DX009 (ip), vehicle: saline with Tween-80.
The mark [14] stands for this setting: dose: 50.0 mg/kg/injection, schedule: Q01DX009 (ip), vehicle: saline.
Where [15] appears, read: dose: 100.0 mg/kg/injection, schedule: Q01DX009 (ip), vehicle: saline.
Setting [16] is: dose: 200.0 mg/kg/injection, schedule: Q01DX009 (ip), vehicle: saline.
[17] abbreviates: dose: 200.0 mg/kg/injection, schedule: Q01DX005 (ip), vehicle: saline with Tween-80.

Where “and” joins values, the source holds several entries; their conditions need not be identical. Identical values can stand only once. Toxic doses and inconclusive results are not listed.

Here are results for 29 compounds from PubChem BioAssay AID330 (DTP/NCI, 2004).

For `CCOC(=O)/C=C(\C)NC1CC(=O)NC1=O` (centres undefined), the T/C reads like this: (dose: 50.0 mg/kg/injection, schedule: Q01DX009 (ip), vehicle: distilled water + alcohol) 104 % of control; (dose: 100.0 mg/kg/injection, schedule: Q01DX009 (ip), vehicle: distilled water + alcohol) 108 % of control.
For the compound `c1ccc(C2=NC(=c3ccc(=C4N=C(c5ccccc5)C(c5ccccc5)=N4)cc3)N=C2c2ccccc2)cc1`, the T/C runs as follows: under setting [1], 90 % of control; under setting [2], 90 % of control; under setting [3], 100 % of control.
`CC1(C)c2ccccc2-c2nc3ccccc3c(N)c2C1O` (centres undefined): the T/C runs as follows: under setting [4], 104 % of control; under setting [5], 100 % of control; under setting [6], 104 % of control.
Take `CC(C)CNC(=O)OCc1c(COC(=O)NCC(C)C)c(-c2ccc(Cl)c(Cl)c2)n2c1CCC2`: the T/C (dose: 6.25 mg/kg/injection, schedule: Q01DX009 (ip), vehicle: distilled water + Tween-80) is 111 % of control and 116 % of control; the T/C (dose: 25.0 mg/kg/injection, schedule: Q01DX009 (ip), vehicle: distilled water + Tween-80) is 158 % of control and 171 % of control; the T/C (dose: 50.0 mg/kg/injection, schedule: Q01DX009 (ip), vehicle: distilled water + Tween-80) is 182 % of control and 198 % of control; the T/C (dose: 100.0 mg/kg/injection, schedule: Q01DX009 (ip), vehicle: distilled water + Tween-80) was 180 % of control; the T/C (dose: 200.0 mg/kg/injection, schedule: Q01DX009 (ip), vehicle: distilled water + Tween-80) was 100 % of control and 92 % of control.
On to `Cc1ccc(NC(=O)CCCCC(C)NCC(O)c2ccc(O)c(O)c2)cc1` (centres undefined), for which the T/C runs as follows: under setting [7], 97 % of control; under setting [8], 100 % of control.
As to `Cc1cc(OP2(=O)Nc3cccc4cccc(c34)N2)ccc1Cl`, the T/C was 89 % of control under setting [9] and 89 % of control under setting [10].
Regarding `CC(C)(C)N(O)c1cccc(P(=O)(c2ccccc2)c2ccccc2)c1`, the T/C was 108 % of control under setting [11], 94 % of control under setting [12] and 92 % of control under setting [13].
`Nc1nnc2cc(Cl)ccc2n1`: the T/C reads like this: (dose: 25.0 mg/kg/injection, schedule: Q01DX005 (ip), vehicle: Klucel (hydroxypropylcellulose) (HPC)) 98 % of control; under setting [4], 96 % of control; under setting [5], 98 % of control; under setting [6], 98 % of control.
Regarding `O=C1OC2(CCCC2)OC(=O)C1=Cc1ccc([N+](=O)[O-])s1`, the T/C by setting is: under setting [12], 115 % of control; under setting [13], 114 % of control.
As for `CCCCCCCCCCCCCCCCSc1ccc(N=Cc2ccc(N(CC)CC#N)cc2)cc1`, the T/C runs as follows: under setting [12], 97 % of control; under setting [13], 94 % of control.
Regarding `CC1CCC(C(C)C)C(OC(=O)c2cccc[n+]2C)C1` (centres undefined), the T/C runs as follows: (dose: 3.75 mg/kg/injection, schedule: Q01DX005 (ip), vehicle: saline) 107 % of control; (dose: 7.5 mg/kg/injection, schedule: Q01DX005 (ip), vehicle: saline) 103 % of control; (dose: 15.0 mg/kg/injection, schedule: Q01DX005 (ip), vehicle: saline) 110 % of control; (dose: 30.0 mg/kg/injection, schedule: Q01DX005 (ip), vehicle: saline) 104 % of control and 119 % of control.
On to `CC(=O)c1cc[c]([Sn]([CH3])([Cl])[c]2ccccc2)cc1` (centres undefined), for which the T/C is, setting by setting: (dose: 7.5 mg/kg/injection, schedule: Q01DX005 (ip), vehicle: Klucel (hydroxypropylcellulose) (HPC)) 100 % of control; (dose: 15.0 mg/kg/injection, schedule: Q01DX005 (ip), vehicle: Klucel (hydroxypropylcellulose) (HPC)) 107 % of control; under setting [1], 108 % of control.
As to `O=C(OC1C2CCC2C2CC21)c1ccc([N+](=O)[O-])cc1[N+](=O)[O-]` (centres undefined), the T/C reads like this: under setting [14], 105 % of control; under setting [15], 99 % of control and 92 % of control; under setting [16], 92 % of control and 93 % of control.
For the compound `c1cc2onc3c4cccc5onc(c(c1)c23)c54`, the T/C was 99 % of control (dose: 8.75 mg/kg/injection, schedule: Q01DX005 (ip), vehicle: Klucel (hydroxypropylcellulose) (HPC)); 93 % of control (dose: 17.5 mg/kg/injection, schedule: Q01DX005 (ip), vehicle: Klucel (hydroxypropylcellulose) (HPC)); 99 % of control (dose: 35.0 mg/kg/injection, schedule: Q01DX005 (ip), vehicle: Klucel (hydroxypropylcellulose) (HPC)).
As to `CC(C)CCC(=O)c1ccoc1`, the T/C was 103 % of control (dose: 0.46 mg/kg/injection, schedule: Q01DX005 (ip), vehicle: saline with Tween-80); 97 % of control (dose: 0.93 mg/kg/injection, schedule: Q01DX005 (ip), vehicle: saline with Tween-80); 97 % of control (dose: 1.87 mg/kg/injection, schedule: Q01DX005 (ip), vehicle: saline with Tween-80); 89 % of control (dose: 3.75 mg/kg/injection, schedule: Q01DX005 (ip), vehicle: saline with Tween-80).
On to `Cc1c(O)c2ccc(N(C)C)cc2[nH]c1=O`, for which the T/C by setting is: under setting [9], 101 % of control; under setting [10], 95 % of control; under setting [17], 100 % of control.
For `CCOC(=O)C(Cl)c1ccc(OC)cc1` (centres undefined), the T/C by setting is: (dose: 100.0 mg/kg/injection, schedule: Q04DX003 (ip), vehicle: other) 104 % of control; (dose: 200.0 mg/kg/injection, schedule: Q04DX003 (ip), vehicle: other) 90 % of control; (dose: 400.0 mg/kg/injection, schedule: Q04DX003 (ip), vehicle: other) 104 % of control.
For `CC(=O)NC(=O)CCCCCCC(=O)NC(C)=O`, the T/C under setting [4] is 88 % of control.
`C/C=C(\C)C(N)=O`: the T/C by setting is: under setting [14], 90 % of control; under setting [15], 100 % of control; under setting [16], 95 % of control.
Take `COC1C=COC2(C)Oc3c(C)c(O)c4c(O)c(c(C5SCCS5)c(O)c4c3C2=O)NC(=O)C(C)=C/C=C\C(C)C2OC(C)(C)OC(C2C)C(C)C(OC(C)=O)C1C` (centres undefined): the T/C was 109 % of control under setting [12]; 102 % of control under setting [13]; 96 % of control (dose: 200.0 mg/kg/injection, schedule: Q01DX009 (ip), vehicle: saline with Tween-80).
For the compound `CCCCN1C(=O)C(CC(=O)OCC)SC1=S` (centres undefined), the T/C by setting is: under setting [1], 95 % of control; under setting [2], 97 % of control; under setting [3], 97 % of control.
With `CCC(N)Cc1cc(OC)c(C)cc1OC` (centres undefined), the T/C under setting [11] was 90 % of control; the T/C under setting [12] was 98 % of control and 99 % of control; the T/C under setting [13] is 103 % of control.
As for `O=C(N/N=C/c1ccccc1[OH2+])c1ccncc1.O=S(=O)([O-])[O-].[Fe+2]`, the T/C (dose: 100.0 mg/kg/injection, schedule: Q01DX001 (ip), vehicle: Klucel (hydroxypropylcellulose) (HPC)) is 94 % of control and the T/C (dose: 200.0 mg/kg/injection, schedule: Q01DX001 (ip), vehicle: Klucel (hydroxypropylcellulose) (HPC)) is 92 % of control.
As to `O=C1C(=O)c2ccccc2C(O)=C1CC=C(Br)Br`, the T/C under setting [12] is 100 % of control; the T/C under setting [13] is 100 % of control; the T/C (dose: 100.0 mg/kg/injection, schedule: Q04DX003 (ip), vehicle: saline with Tween-80) is 100 % of control; the T/C (dose: 200.0 mg/kg/injection, schedule: Q04DX003 (ip), vehicle: saline with Tween-80) is 110 % of control.
`CC(O)C(N=C1N=CNC2=NC=NC12)C(=O)O` (centres undefined): the T/C reads like this: under setting [9], 100 % of control; under setting [10], 96 % of control; under setting [17], 95 % of control.
`O=[N+]([O-])c1cc2c(c([N+](=O)[O-])c1)OC(C(Cl)(Cl)Cl)OC2C(Cl)(Cl)Cl` (centres undefined): the T/C under setting [4] was 107 % of control, the T/C under setting [5] was 103 % of control and the T/C under setting [6] is 117 % of control.
In the same order, the values of `Cc1c(C#N)c2nc(N)c3ccccc3n2c1C` are 101 % of control, 106 % of control and 106 % of control.
Take `CCOC1CC2(O)c3c(cc4c(c3O)C(=O)c3c(O)ccc(O)c3C4=O)OC2O1` (centres undefined): the T/C under setting [7] is 103 % of control; the T/C under setting [8] was 109 % of control; the T/C (dose: 400.0 mg/kg/injection, schedule: Q01DX001 (ip), vehicle: saline) is 116 % of control.
In the case of `C[CH2][Ge]([CH2]C)[CH2]/C=C\[CH2][Ge]([CH2]C)[CH2]C`, the T/C was 94 % of control under setting [12] and 117 % of control under setting [13].
